Measured values reported in the supplement of paper PMC10307832.

Experiments:
Assay in all cases: relative viability (nuclei count vs DMSO), 5 days (fraction); higher = more cells survive
[1] = compound: Cc1ccc(NC(=O)c2ccc(CN3CCN(C)CC3)cc2)cc1Nc1nccc(-c2cccnc2)n1 [Imatinib] + O=C(CCCCCCC(=O)Nc1ccccc1)NO [Vorinostat] (partner 1 µM)
Method in brief: (§1)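 Values are medians from duplicate plates. Each reflects relative viability, defined as the nuclei count of treated wells over that of vehicle wells. Lung cancer cell lines in 1536-well plates were pin-tool dosed one day after seeding with one drug alone or with a fixed anchor-drug dose plus five library-drug doses (not always all listed) in √10 steps, then fixed, stained and imaged at 4× after 5 days.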

[2] = compound: Cc1ccc(NC(=O)c2ccc(CN3CCN(C)CC3)cc2)cc1Nc1nccc(-c2cccnc2)n1 [Imatinib] + CS(=O)(=O)N1CCN(Cc2cc3nc(-c4cccc5[nH]ncc45)nc(N4CCOCC4)c3s2)CC1 [Pictilisib] (partner 1 µM)
Method in brief: as §1

[3] = compound: Cc1ccc(NC(=O)c2ccc(CN3CCN(C)CC3)cc2)cc1Nc1nccc(-c2cccnc2)n1 [Imatinib] + CS(=O)(=O)CCNCc1ccc(-c2ccc3ncnc(Nc4ccc(OCc5cccc(F)c5)c(Cl)c4)c3c2)o1 [Lapatinib] (partner 2 µM)
Method in brief: as §1

[4] = compound: Cc1ccc(NC(=O)c2ccc(CN3CCN(C)CC3)cc2)cc1Nc1nccc(-c2cccnc2)n1 [Imatinib] + CC1(C)CCC(c2ccc(Cl)cc2)=C(CN2CCN(c3ccc(C(=O)NS(=O)(=O)c4ccc(N[C@H](CCN5CCOCC5)CSc5ccccc5)c(S(=O)(=O)C(F)(F)F)c4)cc3)CC2)C1 [Navitoclax] (partner 0.5 µM)
Method in brief: as §1

Cell Line | relative viability ([1]; first compound 0.02 µM) | relative viability ([1]; first compound 0.06325 µM) | relative viability ([1]; first compound 0.2 µM) | relative viability ([1]; first compound 0.6325 µM) | relative viability ([1]; first compound 2 µM) | relative viability ([2]; first compound 0.02 µM) | relative viability ([2]; first compound 0.06325 µM) | relative viability ([2]; first compound 0.2 µM) | relative viability ([2]; first compound 0.6325 µM) | relative viability ([3]; first compound 0.02 µM) | relative viability ([3]; first compound 0.06325 µM) | relative viability ([3]; first compound 0.2 µM) | relative viability ([3]; first compound 0.6325 µM) | relative viability ([3]; first compound 2 µM) | relative viability ([2]; first compound 2 µM) | relative viability ([4]; first compound 0.02 µM) | relative viability ([4]; first compound 0.06325 µM) | relative viability ([4]; first compound 0.2 µM) | relative viability ([4]; first compound 0.6325 µM) | relative viability ([4]; first compound 2 µM)
NCI-H650 | 0.388 | 0.597 | 0.448 | 0.466 | 0.466 | 1.09 | 1.01 | 0.855 | 0.885 | 1.02 | 1.16 | 1 | 1.11 | 0.85 | – | – | – | – | – | –
NCI-H2009 | 0.805 | 0.646 | 0.554 | 0.794 | 0.758 | 0.809 | 0.429 | 0.909 | 0.878 | 0.974 | 0.442 | 1.05 | 0.87 | 0.939 | 0.896 | 1.22 | 1.22 | 1.23 | 1.17 | 1.11
EKVX | 0.665 | – | 0.753 | 0.881 | 0.699 | 0.419 | 0.343 | 0.475 | 0.528 | 0.222 | 0.189 | 0.197 | 0.208 | 0.197 | 0.508 | 1.18 | 0.859 | 0.983 | 0.929 | 0.973
NCI-H596 | 0.648 | 0.481 | 0.59 | 0.586 | 0.623 | 0.416 | 0.375 | 0.42 | 0.394 | 1.17 | 1.29 | 1.13 | – | 1.03 | 0.388 | 1.07 | 0.861 | 1 | 0.876 | –
NCI-H3122 | 1.13 | 1.01 | 1.08 | – | 1.02 | 0.647 | 0.551 | 0.572 | 0.666 | 1.03 | 1.04 | – | 1.02 | 0.989 | 0.679 | – | 1.11 | 1.08 | 1.06 | 1.01
NCI-H2085 | 0.755 | 0.683 | 0.772 | 0.743 | 0.768 | 0.448 | 0.462 | 0.472 | 0.594 | 0.754 | 0.591 | 0.733 | 0.819 | 0.694 | 0.434 | 1.16 | 1.07 | 1.33 | 1.13 | –
NCI-H441 | 0.96 | 1.07 | 0.893 | 0.858 | 0.737 | 0.501 | 0.437 | 0.578 | 0.502 | – | – | – | – | – | 0.435 | 0.647 | 0.675 | 0.606 | 0.612 | 0.572
NCI-H1395 | 0.687 | – | 0.67 | 0.698 | 0.594 | 0.622 | – | 0.6 | 0.651 | 0.956 | – | – | 0.988 | 1.19 | 0.605 | 1.07 | – | 1.04 | 0.979 | 0.989
NCI-H1944 | 0.605 | 0.573 | 0.536 | 0.512 | 0.439 | 0.353 | – | 0.368 | 0.324 | 0.8 | – | 0.991 | 0.853 | 0.771 | 0.335 | 1.03 | – | 1.05 | 1.07 | 1.08
